These results are taken from publication PMC4001449, “Thienoquinolines as Novel Disruptors of the PKCε/RACK2 Protein–Protein Interaction” (Journal of Medicinal Chemistry, 2014).

For assay [1], the system named is PKCε. Description: PKCε translocation by immunofluorescence in PC-3 cells. The assay is classed as cell-based, human. The note with it: Figure 4. The procedure:
PC-3 cells were grown on glass coverslips coated with poly-L-lysine (Sigma-Aldrich). After treatment with 8 for 30 min and with 100 nM TPA for 5 min, the cells were rinsed twice with phosphate buffered saline (PBS) and fixed with filter sterilized 4% (w/v) paraformaldehyde/4% sucrose (w/v) (both from Sigma-Aldrich) in PBS at room temperature for 10 min. Subsequently the cells were washed three times with PBS and permeabilized with 0.2% Triton X-100/0.2% IgG-free BSA in PBS at room temperature for 10 min. After blocking with 5% normal goat serum diluted in PBS as described above for 30 min, cells were incubated with the primary antibodies for PKCε (Santa Cruz; diluted 1:500) in 0.2% Triton X-100/0.2% IgG-free BSA in PBS at 4 °C overnight. Subsequently, the cells were washed three times with the same buffer and incubated with the labeled secondary antibody (Alexa Fluor, Invitrogen, Life Technologies, Carlsbad, CA; 1:4000) at room temperature for 1 h. After three more washes with 0.2% Triton X-100/0.2% IgG-free BSA in PBS, cells were mounted with Mowiol (Sigma-Aldrich) and images were taken with an Olympus BX 50 optical microscope (Olympus Corporation, Tokyo, Japan).

Assay [2] deals with HeLa cells with doxycycline-inducible PKCε. Description: Invasion of HeLa cells through a reconstituted basement membrane matrix. The assay is classed as cell-based. The note with it: PKCε induced with doxycycline, Figure 6C. The procedure:
Figure 6 Compound 8 inhibits MARCKS phosphorylation, cell proliferation, and invasion following treatment with 8. (A) HeLa cells were starved for 16 h in medium without fetal calf serum. Subsequently, they were treated with 50 μM solution of compound 8 for 30 min and 100 nM TPA for the last 10 min. An amount of 150 μg of protein from lysed cells was loaded onto SDS 8–16% gels. Tubulin was used as loading control. Below a representative blot, a bar graph corresponding to quantitative scans of three independent experiments (±SD) is shown. (B) Cell proliferation following treatment of HeLa and PC-3 cells with 8. The mean values (±SD) of three independent experiments, in which three samples were taken within each experiment, are shown. (C) Invasion of cells through a membrane. Cell invasion was determined as described in Experimental Section. In HeLa cells with a doxycycline-inducible PKCε the expression of PKCε was induced with doxycycline (control + Dox). The mean of three experiments (±SD) is shown: (∗) p = 0.03. The data are normalized to the control (100%). Therefore, the standard deviation for the control is 0.
For cell migration and motility, a scratch migration assay described by Cha et al.[41] was employed. […] Invasion of HeLa cells through a reconstituted basement membrane matrix was determined with a cell invasion assay kit from Chemicon (no. ECM550) as described by the manufacturer.

Assay [3] relates to HeLa cells containing a doxycycline-inducible constitutively active PKCε. Description: Scratch migration assay. The assay is classed as cell-based. The note with it: 25 μM, 24 h, doxycycline 2 μg/mL. The protocol:
For cell migration and motility, a scratch migration assay described by Cha et al.[41] was employed. In a tissue culture dish, with logarithmically growing HeLa cells containing a doxycycline-inducible constitutively active PKCε, a migration gap of approximately 1 mm was created by introducing a “scratch” to the adherent layer of cultured cells using a sterile Gilson 200 μL pipet tip. The scratch was administered by hand with sufficient pressure to remove adherent cells from the polystyrene substrate but without causing physical damage to the polystyrene surface. The dish was washed with PBS to remove the cells and further incubated with 2 μg/mL doxycycline and 25 μM 8 for 24 h. Controls were left either untreated or were incubated with 2 μg/mL doxycycline and DMSO. […] Invasion of HeLa cells through a reconstituted basement membrane matrix was determined with a cell invasion assay kit from Chemicon (no. ECM550) as described by the manufacturer.

The test system of assay [4] is PKCδ. Put plainly: PKCδ translocation, cell fractionation and Western blotting in PC-3 cells. It counts as cell-based, human. Conditions: TPA, Figure 3. The protocol: For PKCε translocation PC-3 cells were starved for 16 h, treated with 8 for 30 min, stimulated with 50 nM TPA for 5 min, lysed, and fractionated with a CNMCS/CNM compartmental protein extraction kit (BioChain Institute, Newark, CA). Western blotting was performed by a standard procedure as described by Garczarczyk et al.[27],[40] Cytosolic and membrane fractions were loaded onto SDS gels and transferred to an Immobilon membrane (Millipore, Billerica, MA). The membranes were incubated with rabbit polyclonal IgG antibodies for detection of PKCε (Santa Cruz Biotechnology; dilution 1:2000), for PKCε phosphoSer^729 (Millipore; dilution 1:1000), for PKCδ (Santa Cruz Biotechnology; dilution 1:1000), and for MARCKS phosphoSer152/156 (Cell Signaling Technology, Danvers, MA; dilution 1:1000). For the loading control tubulin (Santa Cruz Biotechnology; dilution 1:1000), and as marker for the membrane fraction, an IGFI-βR rabbit polyclonal IgG antibody (Santa Cruz; dilution 1:1000) and, as secondary antibodies, peroxidase-conjugated AffiniPure goat anti-rabbit IgG (Jackson ImmunoResearch Laboratories, West Grove, PA; dilution 1:20000) were used. GAPDH (Chemicon, Millipore, Billerica, MA; dilution 1:10000) was used as loading control for the cytosolic fraction. […]
(In general: A western blot detects proteins with antibodies after separation by electrophoresis.)

Assay [5] addresses PIM3 (Homo sapiens, UniProt Q86V86). Put plainly: Kinase profiling (Dundee), PIM3. It counts as biochemical. The note with it: 25 μM solution.
The subject of assay [6] is HeLa-HLR cells. Description: Cell proliferation (SRB assay), HeLa-HLR. It counts as cell-based. Conditions: 50 μM, 72 h. The protocol: HeLa cells containing a tetracycline/doxycycline-inducible constitutively active PKCε were described previously.[26] A PathDetect HeLa HLR cell line was obtained from Agilent, Technologies, Wokingham, U.K. PC-3 prostate adenocarcinoma cells were obtained from Dr. Helmut Klocker, Department of Urology, Innsbruck Medical University. For cell proliferation HeLa HLR and PC-3 cells were seeded at ∼10 000 cells per well in 96-well plates. After 4 h various concentrations of 8 were added and left for 72 h. Cell proliferation was determined by the SRB assay.[35]

Consider `CC(=O)c1cccc(NC(=O)c2sc3nc4cc5c(cc4cc3c2N)OCCO5)c1` [Compound 8, N-(3-acetylphenyl)-9-amino-2,3-dihydro-1,4-dioxino[2,3-g]thieno[2,3-b]quinoline-8-carboxamide], for which the “TPA-induced PKCε translocation to the plasma membrane (immunocytochemistry)” value in assay [1] was “prevented”. The “Invasion of cells through an extracellular matrix” value in assay [2] is listed as “inhibited”. Moreover, the “PKCε-induced migration of cells into a gap” value in assay [3] was “inhibited”. Moreover, in assay [4], the “PKCδ in the membrane” value is recorded as “did not decrease”. For the same molecule, the “PIM3 activity, % of control” value in assay [5] is 46 % of control. The “Inhibition of cell proliferation” value in assay [6] was “did not show any inhibition”.
